Experimental data as given in ChEMBL document CHEMBL3885881, “DrugMatrix”.

Organism: Rattus norvegicus
Experiment: DrugMatrix - Regimen: Daily Repeat
Type: toxicity, organism-based, Sprague-Dawley
Parameters: regimen Daily Repeat, gender Male, age 6-8 weeks
Conditions: in vivo, po, route oral GAVAGE, vehicle .5 % CMC; for ABSOLUTE BASOPHIL / ABSOLUTE EOSINOPHIL / ABSOLUTE LYMPHOCYTE / ABSOLUTE MONOCYTE / ABSOLUTE SEGMENTED NEUTROPHIL / BASOPHIL / EOSINOPHIL / ERYTHROCYTE COUNT / HEMATOCRIT / HEMOGLOBIN / LEUKOCYTE COUNT / LYMPHOCYTE / MEAN CORPUSCULAR HEMOGLOBIN / MEAN CORPUSCULAR HEMOGLOBIN CONCENTRATION / MEAN CORPUSCULAR VOLUME / MONOCYTE / NEUTROPHIL / NUCLEATED RED BLOOD CELLS / PLATELET COUNT: tissue Blood; for ALANINE AMINOTRANSFERASE / ALBUMIN / ALKALINE PHOSPHATASE / ASPARTATE AMINOTRANSFERASE / BLOOD UREA NITROGEN / CARBON DIOXIDE / CHLORIDE / CHOLESTEROL / CREATINE PHOSPHOKINASE / CREATININE / GLUCOSE / LACTATE DEHYDROGENASE / LIPASE / PHOSPHORUS / POTASSIUM / SODIUM / TOTAL BILIRUBIN / TOTAL PROTEIN / URIC ACID: tissue Plasma
[1] = 15 mg/kg, 72 h, dose level Low, time 3 day
[2] = 15 mg/kg, 120 h, dose level Low, time 5 day
[3] = 2000 mg/kg, 72 h, dose level High, time 3 day
[4] = 2000 mg/kg, 120 h, dose level High, time 5 day

C[C@]12CCC(=O)C=C1CC[C@@H]1[C@@H]2CC[C@@]2(C)[C@H]1CC[C@]2(C)O [METHYLTESTOSTERONE]
ABSOLUTE BASOPHIL [1]: 0 CELLS/uL
ABSOLUTE EOSINOPHIL [1]: 240 CELLS/uL
ABSOLUTE LYMPHOCYTE [1]: 14115 CELLS/uL
ABSOLUTE MONOCYTE [1]: 60.67 CELLS/uL
ABSOLUTE SEGMENTED NEUTROPHIL [1]: 1817.67 CELLS/uL
BASOPHIL [1]: 0%
EOSINOPHIL [1]: 1.33%
ERYTHROCYTE COUNT [1]: 5.48 x10E6/uL
HEMATOCRIT [1]: 33.23%
HEMOGLOBIN [1]: 12.9 G/DL
LEUKOCYTE COUNT [1]: 16.23 x10E3/uL
LYMPHOCYTE [1]: 87%
MEAN CORPUSCULAR HEMOGLOBIN [1]: 23.53 pg
MEAN CORPUSCULAR HEMOGLOBIN CONCENTRATION [1]: 38.8 G/DL
MEAN CORPUSCULAR VOLUME [1]: 60.73 fL
MONOCYTE [1]: 0.33%
NEUTROPHIL [1]: 11.33%
NUCLEATED RED BLOOD CELLS [1]: 0 /100WBC
PLATELET COUNT [1]: 1314.67 x10E3/uL
ALANINE AMINOTRANSFERASE [1]: 47.33 u/L
ALBUMIN [1]: 4.2 G/DL
ALKALINE PHOSPHATASE [1]: 275.33 u/L
ASPARTATE AMINOTRANSFERASE [1]: 99.33 u/L
BLOOD UREA NITROGEN [1]: 18.67 mg/dL
CARBON DIOXIDE [1]: 27 mmol/L
CHLORIDE [1]: 103 MEQ/L
CHOLESTEROL [1]: 75 mg/dL
CREATINE PHOSPHOKINASE [1]: 593 u/L
CREATININE [1]: 0.23 mg/dL
GLUCOSE [1]: 141 mg/dL
LACTATE DEHYDROGENASE [1]: 578.33 u/L
LIPASE [1]: 9 u/L
PHOSPHORUS [1]: 11.9 mg/dL
POTASSIUM [1]: 5.93 MEQ/L
SODIUM [1]: 145.33 MEQ/L
TOTAL BILIRUBIN [1]: 0.2 mg/dL
TOTAL PROTEIN [1]: 5.8 G/DL
URIC ACID [1]: 1.47 mg/dL
ABSOLUTE BASOPHIL [2]: 0 CELLS/uL
ABSOLUTE EOSINOPHIL [2]: 157.67 CELLS/uL
ABSOLUTE LYMPHOCYTE [2]: 14288.33 CELLS/uL
ABSOLUTE MONOCYTE [2]: 45 CELLS/uL
ABSOLUTE SEGMENTED NEUTROPHIL [2]: 1275.67 CELLS/uL
BASOPHIL [2]: 0%
EOSINOPHIL [2]: 1%
ERYTHROCYTE COUNT [2]: 5.89 x10E6/uL
HEMATOCRIT [2]: 35.43%
HEMOGLOBIN [2]: 13.6 G/DL
LEUKOCYTE COUNT [2]: 15.77 x10E3/uL
LYMPHOCYTE [2]: 90.33%
MEAN CORPUSCULAR HEMOGLOBIN [2]: 23.1 pg
MEAN CORPUSCULAR HEMOGLOBIN CONCENTRATION [2]: 38.4 G/DL
MEAN CORPUSCULAR VOLUME [2]: 60.17 fL
MONOCYTE [2]: 0.33%
NEUTROPHIL [2]: 8.33%
NUCLEATED RED BLOOD CELLS [2]: 0 /100WBC
PLATELET COUNT [2]: 1359 x10E3/uL
ALANINE AMINOTRANSFERASE [2]: 52.33 u/L
ALBUMIN [2]: 4.13 G/DL
ALKALINE PHOSPHATASE [2]: 322.67 u/L
ASPARTATE AMINOTRANSFERASE [2]: 91 u/L
BLOOD UREA NITROGEN [2]: 13.67 mg/dL
CARBON DIOXIDE [2]: 26.67 mmol/L
CHLORIDE [2]: 103 MEQ/L
CHOLESTEROL [2]: 77.33 mg/dL
CREATINE PHOSPHOKINASE [2]: 245 u/L
CREATININE [2]: 0.17 mg/dL
GLUCOSE [2]: 149.33 mg/dL
LACTATE DEHYDROGENASE [2]: 232.33 u/L
LIPASE [2]: 9.33 u/L
PHOSPHORUS [2]: 12.6 mg/dL
POTASSIUM [2]: 6.3 MEQ/L
SODIUM [2]: 143.83 MEQ/L
TOTAL BILIRUBIN [2]: 0.17 mg/dL
TOTAL PROTEIN [2]: 5.87 G/DL
URIC ACID [2]: 1.73 mg/dL
ABSOLUTE BASOPHIL [3]: 0 CELLS/uL
ABSOLUTE EOSINOPHIL [3]: 184 CELLS/uL
ABSOLUTE LYMPHOCYTE [3]: 15708.67 CELLS/uL
ABSOLUTE MONOCYTE [3]: 378.67 CELLS/uL
ABSOLUTE SEGMENTED NEUTROPHIL [3]: 2662 CELLS/uL
BASOPHIL [3]: 0%
EOSINOPHIL [3]: 1%
ERYTHROCYTE COUNT [3]: 6.47 x10E6/uL
HEMATOCRIT [3]: 38.33%
HEMOGLOBIN [3]: 14.53 G/DL
LEUKOCYTE COUNT [3]: 18.93 x10E3/uL
LYMPHOCYTE [3]: 83%
MEAN CORPUSCULAR HEMOGLOBIN [3]: 22.53 pg
MEAN CORPUSCULAR HEMOGLOBIN CONCENTRATION [3]: 37.97 G/DL
MEAN CORPUSCULAR VOLUME [3]: 59.27 fL
MONOCYTE [3]: 2%
NEUTROPHIL [3]: 14%
NUCLEATED RED BLOOD CELLS [3]: 0 /100WBC
PLATELET COUNT [3]: 1292 x10E3/uL
ALANINE AMINOTRANSFERASE [3]: 50.33 u/L
ALBUMIN [3]: 3.93 G/DL
ALKALINE PHOSPHATASE [3]: 352.33 u/L
ASPARTATE AMINOTRANSFERASE [3]: 71.67 u/L
BLOOD UREA NITROGEN [3]: 13 mg/dL
CARBON DIOXIDE [3]: 27.67 mmol/L
CHLORIDE [3]: 101.33 MEQ/L
CHOLESTEROL [3]: 14.67 mg/dL
CREATINE PHOSPHOKINASE [3]: 215 u/L
CREATININE [3]: 0.25 mg/dL
GLUCOSE [3]: 123.33 mg/dL
LACTATE DEHYDROGENASE [3]: 352 u/L
LIPASE [3]: 7.33 u/L
PHOSPHORUS [3]: 10.83 mg/dL
POTASSIUM [3]: 6.24 MEQ/L
SODIUM [3]: 142.83 MEQ/L
TOTAL BILIRUBIN [3]: 0.5 mg/dL
TOTAL PROTEIN [3]: 5.53 G/DL
URIC ACID [3]: 1.17 mg/dL
ABSOLUTE BASOPHIL [4]: 0 CELLS/uL
ABSOLUTE EOSINOPHIL [4]: 0 CELLS/uL
ABSOLUTE LYMPHOCYTE [4]: 14176.33 CELLS/uL
ABSOLUTE MONOCYTE [4]: 40.33 CELLS/uL
ABSOLUTE SEGMENTED NEUTROPHIL [4]: 2783.33 CELLS/uL
BASOPHIL [4]: 0%
EOSINOPHIL [4]: 0%
ERYTHROCYTE COUNT [4]: 6.11 x10E6/uL
HEMATOCRIT [4]: 36.23%
HEMOGLOBIN [4]: 13.97 G/DL
LEUKOCYTE COUNT [4]: 17 x10E3/uL
LYMPHOCYTE [4]: 83%
MEAN CORPUSCULAR HEMOGLOBIN [4]: 22.9 pg
MEAN CORPUSCULAR HEMOGLOBIN CONCENTRATION [4]: 38.53 G/DL
MEAN CORPUSCULAR VOLUME [4]: 59.37 fL
MONOCYTE [4]: 0.33%
NEUTROPHIL [4]: 16.67%
NUCLEATED RED BLOOD CELLS [4]: 0.33 /100WBC
PLATELET COUNT [4]: 1295.33 x10E3/uL
ALANINE AMINOTRANSFERASE [4]: 46 u/L
ALBUMIN [4]: 3.83 G/DL
ALKALINE PHOSPHATASE [4]: 370 u/L
ASPARTATE AMINOTRANSFERASE [4]: 60 u/L
BLOOD UREA NITROGEN [4]: 16.33 mg/dL
CARBON DIOXIDE [4]: 26 mmol/L
CHLORIDE [4]: 105 MEQ/L
CHOLESTEROL [4]: 28.33 mg/dL
CREATINE PHOSPHOKINASE [4]: 184.33 u/L
CREATININE [4]: 0.2 mg/dL
GLUCOSE [4]: 158.33 mg/dL
LACTATE DEHYDROGENASE [4]: 186.67 u/L
LIPASE [4]: 7.67 u/L
PHOSPHORUS [4]: 12.33 mg/dL
POTASSIUM [4]: 6.29 MEQ/L
SODIUM [4]: 149.6 MEQ/L
TOTAL BILIRUBIN [4]: 0.3 mg/dL
TOTAL PROTEIN [4]: 6.03 G/DL
URIC ACID [4]: 1.5 mg/dL
